Experimental data as given in publication PMC10502144, “Anti-methicillin-resistant Staphylococcus aureus activity and safety evaluation of 14-O-[(5-ethoxycarbonyl-4,6-dimethylpyrimidine-2-yl) thioacetyl] mutilin (EDT)” (Scientific Reports, 2023).
Counter-ions that a name gives are not always drawn. Like-named read-outs stand apart in the source and are kept apart here.

What was measured:
[1] = Cytotoxicity assay (CCK-8), HepG2; type: cell-based; details: human, HepG2 cells, read-out: cell viability
Method: Cytotoxicity of EDT and tiamulin was studied against human hepatocellular carcinoma cells (HepG2) and human embryonic kidney 293T (HEK293T) cells following a protocol as published in our earlier reports[41],[42]. Cells were counted and inoculated into 96-well plates with approximately10^5 cells density for incubating 24 h at 37 °C. […] The same procedure was repeated three times. The percentages of cell viability were calculated by the formula: Cell viability (%) = [Asample ‒ Anegative]/[Apositve ‒ Anegative] × 100%.

[2] = test system: clinical isolates of MRSA; test: MIC by broth serial-dilution against 48 clinical isolates of MRSA; type: cell-based, methicillin-resistant Staphylococcus aureus; details: Staphylococcus aureus; for MIC: MRSA
Method: The tests against 48 clinical isolates of MRSA from dairy farms in 4 different provinces in China[37] were conducted in triplicate, using broth serial-dilution method in 96-well plates according to CLSI reference methods. Briefly, EDT and tiamulin fumarate used as referent drug were dissolved in 25% dimethyl sulfoxide (DMSO) to a solution with concentration of 64 μg/mL. The obtained 100 μL solutions were then added into the first column of the 96-well plate, and diluted to the tenth well with serial twofold dilutions. The last two wells were used as positive controls. The 100 μL bacterial suspension was diluted in MHB to give a final organism density of to 10^5 ~ 10^6 colony-forming unit (CFU) per 1 mL and added to all the wells, followed by incubating at 37 °C for 24 h. […] The results were expressed as an average of the MICs obtained from three independent experiments.

[3] = test system: GFP expression in S. aureus ATCC 29,213; test: Green fluorescent protein (GFP) inhibition assay; type: cell-based, Staphylococcus aureus; details: 1 and 4 μM, co-incubation 4 h, fluorescence microscopy
Method: The inhibition assay against GFP expression was performed according to our previous report[41] with minor modification. Plasmids carried erythromycin resistant genes were labeled with GFP and electrotransformed into S. aureus. After screenings using erythromycin, S. aureus strain expressing GFP was then obtained and grown to mid-logarithmic phase, followed by collecting centrifugally and re-suspending with PBS buffer. The obtained suspensions were co-incubated with EDT and tiamulin with the final concentrations of 1 and 4 μM, respectively, for 4 h at 37 °C. The cells were subsequently collected by centrifugation to perform imaging using fluorescence microscopy after re-suspending with PBS buffer.

MRSA-337371 = test: Post-antibiotic effect (PAE) test, viable counting; type: cell-based, methicillin-resistant Staphylococcus aureus; details: 1×, 2×, 4× and 8× MIC, 1 h exposure
Method: The PAE of EDT against MRSA-337371 was determined using a standard viable counting method. We selected 1 × , 2 × , 4 × and 8 × MICs of EDT and tiamulin (0.0313 and 0.5 μg/mL, respectively), to conduct PAE test on MRSA strains. The strains (1 × 10^5 CFU/mL) were placed in MHB broth test tubes containing the above four concentrations of EDT and tiamulin, respectively, and cultured in a shaking bed at 37 °C for 1 h, followed by centrifuging for 10 min at 4000 r/min. The supernatants were discarded and the precipitations were dissolved with 2 mL normal saline to centrifuge. The same procedure was repeated three times. The final bacterial precipitates were taken and cultured in MHB broth with the initial concentration of 5.5 Log CFU/mL at 37 °C in a shaking bed. Samples were then taken at 0, 1, 2, 3, 4, 5, 6, 8, 12, 18 and 24 h to dilute 10–100,000 times and the 10 μL dilutions were evenly smear on MHA plate medium to culture at 37 °C for 48 h. Finally, the average numbers of colonies on the plates were obtained and the PAE values were calculated as hour using equation PAE = T − C, in which T was the time required for the increase of 1 log10 CFU/mL after the removal of drugs and C was the time required for the number of MRSA in the control tube to increase by 1 log10 CFU/mL. Experiments were performed in triplicate.

With `C=C[C@]1(C)C[C@@H](OC(=O)CSCCN(CC)CC)[C@]2(C)[C@H](C)CC[C@]3(CCC(=O)[C@H]32)[C@@H](C)[C@@H]1O` [tiamulin, Tiamulin fumarate, reference compound] the viability at 6 h, 100 µM ([1]; HepG2, 100 μM) was 60.8%, the viability at 6 h, 200 µM ([1]; HepG2, 200 μM) was 55.6% and the MIC ([2]; range over 48 clinical isolates of MRSA, read-out: MIC values against 48 strains) was 0.125 to 1 µg/mL. For the same molecule, the MIC ([2]; strain CX1, read-out: MIC) was 0.5 µg/mL, the MIC ([2]; strain CX2, read-out: MIC) was 0.5 µg/mL and the MIC ([2]; strain CX5, read-out: MIC) was 0.5 µg/mL. For the same molecule, the MIC ([2]; strain CX6, read-out: MIC) was 0.5 µg/mL, the MIC ([2]; strain CX7, read-out: MIC) was 0.5 µg/mL and the MIC ([2]; strain CX9, read-out: MIC) was 1 µg/mL. The MIC ([2]; strain HG1, read-out: MIC) was 0.25 µg/mL, the MIC ([2]; strain HG2, read-out: MIC) was 0.5 µg/mL and the MIC ([2]; strain HG3, read-out: MIC) was 0.5 µg/mL. It also gave an MIC ([2]; strain HG4, read-out: MIC) of 0.5 µg/mL, an MIC ([2]; strain HG5, read-out: MIC) of 0.5 µg/mL and an MIC ([2]; strain HG6, read-out: MIC) of 0.5 µg/mL. The MIC ([2]; strain HG7, read-out: MIC) was 0.5 µg/mL, the MIC ([2]; strain QY4, read-out: MIC) was 0.5 µg/mL and the MIC ([2]; strain QY5, read-out: MIC) was 0.5 µg/mL. It also gave an MIC ([2]; strain QY6, read-out: MIC) of 0.5 µg/mL, an MIC ([2]; strain QY8, read-out: MIC) of 0.5 µg/mL and an MIC ([2]; strain QY10, read-out: MIC) of 0.5 µg/mL. The MIC ([2]; strain SH3, read-out: MIC) was 0.5 µg/mL, the MIC ([2]; strain SH4, read-out: MIC) was 0.5 µg/mL and the MIC ([2]; strain SH6, read-out: MIC) was 0.5 µg/mL. For the same molecule, the MIC ([2]; strain SH7, read-out: MIC) was 0.5 µg/mL, the MIC ([2]; strain SH8, read-out: MIC) was 0.25 µg/mL and the MIC ([2]; strain SH9, read-out: MIC) was 0.5 µg/mL. For the same molecule, the MIC ([2]; strain SH10, read-out: MIC) was 0.5 µg/mL, the MIC ([2]; strain SH11, read-out: MIC) was 0.5 µg/mL and the MIC ([2]; strain SH12, read-out: MIC) was 0.5 µg/mL. The MIC ([2]; strain SH13, read-out: MIC) was 0.5 µg/mL, the MIC ([2]; strain SH14, read-out: MIC) was 0.125 µg/mL and the MIC ([2]; strain SH15, read-out: MIC) was 0.5 µg/mL. For the same molecule, the MIC ([2]; strain SX5, read-out: MIC) was 0.5 µg/mL, the MIC ([2]; strain SX6, read-out: MIC) was 1 µg/mL and the MIC ([2]; strain SX7, read-out: MIC) was 0.5 µg/mL. It also gave an MIC ([2]; strain SX8, read-out: MIC) of 0.5 µg/mL, an MIC ([2]; strain SX9, read-out: MIC) of 0.5 µg/mL and an MIC ([2]; strain SX10, read-out: MIC) of 0.5 µg/mL. The MIC ([2]; strain SX16, read-out: MIC) was 1 µg/mL, the MIC ([2]; strain SX17, read-out: MIC) was 0.5 µg/mL and the MIC ([2]; strain SX18, read-out: MIC) was 0.5 µg/mL. For the same molecule, the MIC ([2]; strain ZY1, read-out: MIC) was 0.5 µg/mL, the MIC ([2]; strain ZY2, read-out: MIC) was 0.5 µg/mL and the MIC ([2]; strain ZY3, read-out: MIC) was 0.25 µg/mL. For the same molecule, the MIC ([2]; strain ZY4, read-out: MIC) was 0.5 µg/mL, the MIC ([2]; strain ZY5, read-out: MIC) was 0.5 µg/mL and the MIC ([2]; strain ZY6, read-out: MIC) was 1 µg/mL. The MIC ([2]; strain ZY7, read-out: MIC) was 0.5 µg/mL, the MIC ([2]; strain ZY8, read-out: MIC) was 1 µg/mL and the MIC ([2]; strain ZY9, read-out: MIC) was 0.25 µg/mL. The inhibition at 0.0625 µg/mL ([2]; at 0.0625 µg/mL, 48 clinical isolates of MRSA, read-out: strains inhibited) was 0%, the “inhibition of GFP expression (green fluorescence intensity)” value [3] was “inhibited GFP expression” and the “PAE values, concentration dependence” value (MRSA-337371) was “increased PAE values in a concentration-dependent manner”.
